Experimental data from patent publication US8129425B2, “Small organic molecule regulators of cell proliferation” (Curis, Inc., priority 2000, dated 2012).

What follows are molecules tested on hedgehog-responsive Gli-Luc reporter-construct (assay: Gli-Luc hedgehog pathway reporter assay in [10T1/2(s12)] cells). Conditions: Table 1.
Format: cell-based, murine
Protocol: To measure the hedgehog agonist activity of compounds, we used [10T1/2(s12)] cells containing the hedgehog-responsive Gli-Luc reporter-construct. In each MTP (MicroTiter Plate; 96-well plate), 10,000-20,000 cells were plated per well, in full media (10% FBS). After about 24-48 hr, plates were switched to low-serum media (=0.5%. FBS). Subsequently, a test compound was added at 1-5 μM in the presence or absence of octyl-hedgehog (see below). After another 24 hr, the media from the MTPs was discarded and replaced with luciferase assay-mix, containing lysis-buffer with luciferase substrate. The plates were incubated at RT for about 15-30 min and read in a luminometer.
Plates were incubated for 48 hr before switching to low-serum. Compounds were screened at 1-2 μM in the presence of Hh protein (0.01 μg/ml; EC30=about 30% of max-induced activity).
Plates were incubated for 24 hr before switching to low-serum. Compounds were screened at 5 μM without adding Hh protein.
From Screen A, we identified hits identified in FIGS. 32 and 33. The 1,4-diaminocyclohexane subunit of the compounds of FIG. 32 which include this moiety have the two amino substituents disposed in a trans-relationship, e.g., both substituents equatorial on the cyclohexane subunit. These hits were confirmed in Screen B. The data shown in FIGS. 34a and 34b essentially involved dosing the two compounds in both assays (Gli-Luc & SV-Luc).
The data from the Gli-Luc assay is converted to percent activity where full activity with Hh protein is set at 100% (FIG. 35; Table 1). […] Furthermore, the compounds show a more striking induction in the presence of hedgehog (EC50=0.2-0.3 μM, ECmax=70-90% of max induced activity with Hh protein), indicating a synergy between the compounds and Hh protein, consistent with the compounds serving as agonists for the hedgehog pathway.

With `CN[C@H]1CC[C@H](N(Cc2cccc(Oc3ccccc3)c2)C(=O)c2sc3ccccc3c2Cl)CC1` [C′′] as the molecule, how does the EC50 read?
The EC50 was less than 10000 nM.

`COc1ccc(CN(C(=O)c2sc3ccccc3c2Cl)[C@H]2CC[C@H](N)CC2)cc1-c1ccc(F)cc1` [E′] was tested. Which EC50 did it give?
Its EC50 is less than 10000 nM.

Which EC50 does the source give for `COc1ccc(CN(C(=O)c2sc3ccccc3c2Cl)[C@H]2CC[C@H](N)CC2)cc1-c1cccnc1` [D′] here?
Its EC50 is less than 10000 nM.

How did the EC50 turn out when `CNC1CCC(N(Cc2cccc(I)c2)C(=O)c2sc3ccccc3c2Cl)CC1` (stereo not shown) [W] was run?
The EC50 was less than 10000 nM.

`CN[C@H]1CC[C@H](N(Cc2cncc(-c3ccc(S(N)(=O)=O)s3)c2)C(=O)c2sc3ccccc3c2Cl)CC1` [K′′′] was tested. Which EC50 did it give?
The EC50 was less than 5000 nM.

How did the EC50 turn out when `CN[C@H]1CC[C@H](N(Cc2ccnc(-c3ccc(N)nc3)c2)C(=O)c2sc3ccccc3c2Cl)CC1` [Q′′′] was run?
Its EC50 is less than 1000 nM.

For `CN[C@H]1CC[C@H](N(Cc2cccc(Nc3ccccn3)c2)C(=O)c2sc3ccccc3c2Cl)CC1` [X′], which EC50 is on record?
The EC50 was less than 10000 nM.

Which EC50 does the source give for `CN[C@H]1CC[C@H](N(Cc2ccc(OC)c(-c3ccc(C#N)cc3)c2)C(=O)c2sc3cccc(F)c3c2Cl)CC1` [Y′′] here?
Its EC50 is less than 50 nM.

For `COc1ccc(CN(C(=O)c2sc3ccccc3c2Cl)[C@H]2CC[C@H](N(C)C)CC2)cc1-c1ccc(C#N)cc1` [G′], which EC50 is on record?
Its EC50 is less than 10000 nM.

Which EC50 does the source give for `CN[C@H]1CC[C@H](N(Cc2ccnc(-c3cccnc3)c2)C(=O)c2sc3ccccc3c2Cl)CC1` [S′′′] here?
Its EC50 is less than 1000 nM.

With `CN[C@H]1CC[C@H](N(Cc2cccc(-c3ccc(OC)nc3)c2)C(=O)c2sc3ccccc3c2Cl)CC1` [V′] as the molecule, how does the EC50 read?
The EC50 was less than 1000 nM.

With `CN[C@H]1CC[C@H](N(Cc2cccc(-c3ccc(S(=O)(=O)N(C)C)s3)c2)C(=O)c2sc3ccccc3c2Cl)CC1` [M′′] as the molecule, how does the EC50 read?
Its EC50 is less than 1000 nM.

For `CN[C@H]1CC[C@H](N(Cc2ccc(OC)c(-c3ccc(C#N)cc3)c2)C(=O)c2sc3ccc(F)c(F)c3c2Cl)CC1` [D′′′], which EC50 is on record?
Its EC50 is less than 50 nM.

Which EC50 does the source give for `CN[C@H]1CC[C@H](N(Cc2cccc(-c3ccc[nH]3)c2)C(=O)c2sc3ccccc3c2Cl)CC1` [D′′] here?
Its EC50 is less than 10000 nM.

`CN[C@H]1CC[C@H](N(Cc2ccc(OC)c(-c3ccc(C#N)cc3)c2)C(=O)c2sc3cc(F)ccc3c2Cl)CC1` [J′] was tested. Which EC50 did it give?
The EC50 was less than 1000 nM.

How did the EC50 turn out when `CN[C@H]1CC[C@H](N(Cc2cccc(-c3cccnc3)n2)C(=O)c2sc3ccccc3c2Cl)CC1` [N′′] was run?
Its EC50 is less than 1000 nM.

Which EC50 does the source give for `COc1ccc(CN(C(=O)c2sc3ccccc3c2Cl)C2CCC(N)CC2)cc1-c1nccs1` (stereo not shown) [Z] here?
The EC50 was less than 10000 nM.

`NC1CCC(N(Cc2cccc(-c3cccnc3)c2)C(=O)c2sc3ccccc3c2Cl)CC1` (stereo not shown) [Compound C] was tested. Which EC50 did it give?
The EC50 was less than 1000 nM.

For `CN[C@H]1CC[C@H](N(Cc2cc(Cl)nc(Cl)c2)C(=O)c2sc3ccccc3c2Cl)CC1` [T′′′], which EC50 is on record?
The EC50 was less than 1000 nM.

Which EC50 does the source give for `CN[C@H]1CC[C@H](N(Cc2ccnc(-c3ccc(C#N)cc3)c2)C(=O)c2sc3ccccc3c2Cl)CC1` [M′′′] here?
Its EC50 is less than 500 nM.

How did the EC50 turn out when `CN[C@H]1CC[C@H](N(Cc2cncc(-c3ccc(C#N)cc3)c2)C(=O)c2sc3ccccc3c2Cl)CC1` [S′′] was run?
The EC50 was less than 10000 nM.

For `CNC1CCC(N(Cc2cccc(-c3ccccn3)c2)C(=O)c2sc3ccccc3c2Cl)CC1` (stereo not shown) [Q], which EC50 is on record?
Its EC50 is less than 1000 nM.

With `CNC1CCC(N(Cc2cccc(-c3ccc(C)nc3)c2)C(=O)c2sc3ccccc3c2Cl)CC1` (stereo not shown) [N] as the molecule, how does the EC50 read?
Its EC50 is less than 1000 nM.

Which EC50 does the source give for `CNC1CCC(N(Cc2cccc(-c3ccncc3)c2)C(=O)c2sc3ccccc3c2Cl)CC1` (stereo not shown) [M] here?
Its EC50 is less than 1000 nM.

For `CN[C@H]1CC[C@H](N(Cc2ccnc(C(F)(F)F)c2)C(=O)c2sc3ccccc3c2Cl)CC1` [R′′′], which EC50 is on record?
The EC50 was less than 1000 nM.

With `COc1ccc(CN(C(=O)c2sc3ccccc3c2C)C2CCC(N)CC2)cc1-c1ccc(C#N)cc1` (stereo not shown) [Compound E] as the molecule, how does the EC50 read?
The EC50 was less than 10000 nM.

`CN[C@H]1CC[C@H](N(Cc2cc(-c3ccc(S(N)(=O)=O)s3)cs2)C(=O)c2sc3ccccc3c2Cl)CC1` [I′′] was tested. Which EC50 did it give?
Its EC50 is less than 500 nM.

Which EC50 does the source give for `CN[C@H]1CC[C@H](N(Cc2cc(-c3ccco3)cs2)C(=O)c2sc3ccccc3c2Cl)CC1` [P′′] here?
Its EC50 is less than 10000 nM.

For `CN[C@H]1CC[C@H](N(Cc2cccc(N3CCC4(CC3)OCCO4)c2)C(=O)c2sc3ccccc3c2Cl)CC1` [Y′], which EC50 is on record?
Its EC50 is less than 10000 nM.

`CN[C@H]1CC[C@H](N(Cc2ccc(OC)c(-c3ccc(C#N)cc3)c2)C(=O)c2sc3cccc(C)c3c2Cl)CC1` [O′′′] was tested. Which EC50 did it give?
Its EC50 is less than 1000 nM.

How did the EC50 turn out when `CN[C@H]1CC[C@H](N(Cc2cc(-c3cccnc3)cs2)C(=O)c2sc3c(F)ccc(F)c3c2Cl)CC1` [V′′] was run?
Its EC50 is less than 5 nM.
